This is an account of results in patent publication US20260356851A1, “TRICYCLIC COMPOUNDS AND USES THEREOF” (HUTCHMED LIMITED, priority 2023, published 2026).

Common to all, as to assay type: cell-based
Assay [1] deals with T1, pERK1/2 (Thr202/Tyr204), NCI-1H441 (KRAS G12V) (Homo sapiens, UniProt P01116, G12V).
T1 construct: pERK1/2 HTRF read-out
Description: Assay of intracellular pERK1/2 (Thr202/Tyr204) phosphorylation in NCI-H441 cells (KRAS G12V). As to conditions: pERK1/2, 2 days, read-out: NCI-H441 (KRAS G12V) IC50. A digest of the protocol:
(§1)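 Cells (10000-12000/well) exposed to 3-fold compound dilutions for 2 days at 37 °C, then lysed; pERK1/2 (Thr202/Tyr204) measured by HTRF with d2 and cryptate antibodies, 665/615 nm ratio.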

For assay [2], the target named is T2, pERK1/2 (Thr202/Tyr204), NCI-1H358 (KRAS G12C) (Homo sapiens, UniProt P01116, G12C).
T2 construct: pERK1/2 HTRF read-out
T2 sequence (P01116 1-188 isoform P01116-2 G12C): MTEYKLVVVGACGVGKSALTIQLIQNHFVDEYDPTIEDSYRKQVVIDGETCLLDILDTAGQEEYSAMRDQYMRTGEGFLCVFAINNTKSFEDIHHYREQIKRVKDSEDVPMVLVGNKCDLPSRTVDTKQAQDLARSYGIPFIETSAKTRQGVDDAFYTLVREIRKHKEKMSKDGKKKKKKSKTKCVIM
Description: Assay of intracellular pERK1/2 (Thr202/Tyr204) phosphorylation in NCI-H358 cells (KRAS G12C). As to conditions: pERK1/2, 2 days, read-out: NCI-H358 (KRAS G12C) IC50. A digest of the protocol:
as §1

Assay [3] deals with T3, pERK1/2 (Thr202/Tyr204), PANC-1 (KRAS G121D) (Homo sapiens, UniProt P01116, G12D).
T3 construct: pERK1/2 HTRF read-out
T3 sequence (P01116 1-188 isoform P01116-2 G12D): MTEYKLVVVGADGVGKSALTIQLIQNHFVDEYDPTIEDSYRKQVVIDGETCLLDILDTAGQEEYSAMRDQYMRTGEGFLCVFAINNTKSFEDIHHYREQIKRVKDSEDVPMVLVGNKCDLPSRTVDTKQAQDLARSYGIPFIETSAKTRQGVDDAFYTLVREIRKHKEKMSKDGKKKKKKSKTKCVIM
In words: Assay of intracellular pERK1/2 (Thr202/Tyr204) phosphorylation in PANC-1 cells (KRAS G12D). The settings on record: pERK1/2, 2 days, read-out: PANC-1 (KRAS G12D) IC50. A digest of the protocol:
as §1

T1 sequence (P01116 1-188 isoform P01116-2 G12V): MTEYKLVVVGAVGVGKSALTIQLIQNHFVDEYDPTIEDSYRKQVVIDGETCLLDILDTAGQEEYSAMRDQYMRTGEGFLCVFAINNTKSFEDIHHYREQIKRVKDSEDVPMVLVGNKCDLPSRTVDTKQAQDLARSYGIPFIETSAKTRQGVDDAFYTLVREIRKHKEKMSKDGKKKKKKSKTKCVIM

Take `CC(c1cccnc1N)N1c2nc(OC[C@@]34CCCN3C[C@H](F)C4)nc3c(F)c(-c4cccc5nc(N)nn45)nc(c23)OC[C@@H]1C` (stereo partly drawn) [Compound 335]: the IC50 in assay [1], in assay [2] and in assay [3] was above 100 nM throughout.

Turning to `CC(c1cccnc1N)N1c2nc(OC[C@@]34CCCN3C[C@H](F)C4)nc3c(F)c(-n4nc(N)c5ccccc54)nc(c23)OC[C@@H]1C` (stereo partly drawn) [Compound 336, (*)1-((9S)-10-(1-(2-aminopyridin-3-yl)ethyl)-4-fluoro-2-(((2R,7aS)-2-fluorotetrahydro-1H-pyrrolizin-7a(5H)-yl)methoxy)-9-methyl-9,10-dihydro-8H-7-oxa-1,3,6,10-tetraazacyclohepta[de]naphthalen-5-yl)-1H-indazol-3-amine], the IC50 in assay [1], in assay [2] and in assay [3] was above 100 nM throughout.

For `CC(c1cccnc1N)N1c2nc(OC[C@@]34CCCN3C[C@H](F)C4)nc3c(F)c(-c4c(C(F)(F)F)ccc5ncccc45)nc(c23)OC[C@@H]1C` (stereo partly drawn) [Compound 337], the half-maximal inhibitory concentration (IC50) in assay [1], in assay [2] and in assay [3] was above 100 nM throughout.

In the case of `Cc1cc(F)c2sc(N)nc2c1-c1nc2c3c(nc(OC[C@@]45CCCN4C[C@H](F)C5)nc3c1F)N(C(C)c1cccnc1N)[C@@H](C)CO2` (stereo partly drawn) [Compound 340], the IC50 worked out at 4 nM in assay [1], 2 nM in assay [2] and 39 nM in assay [3].

With `Cc1cc2[nH]ncc2c(-c2nc3c4c(nc(OC[C@@]56CCCN5C[C@H](F)C6)nc4c2F)N([C@H](C)c2cc(F)cnc2N)[C@@H](C)CO3)c1C(F)(F)F` [Compound 342], the figures for the IC50 in assay [1], in assay [2] and in assay [3] were 0.4 nM, 0.2 nM and 0.3 nM, respectively.

For `CC(c1cccnc1N)N1c2nc(OC[C@@]34CCCN3C[C@H](F)C4)nc3c(F)c(-c4c5c(cc6[nH]ncc46)CCC5)nc(c23)OC[C@@H]1C` (stereo partly drawn) [Compound 343], the half-inhibitory concentration (IC50) in assay [1] turned out to be 0.6 nM; in assay [2], 0.2 nM; in assay [3] it was 2 nM.

Regarding `CC(c1cccnc1N)N1c2nc(OC[C@@]34CCCN3C[C@H](F)C4)nc3c(F)c(-c4c5ccccc5cc5[nH]ncc45)nc(c23)OC[C@@H]1C` (stereo partly drawn) [Compound 348], the figures for the IC50 in assay [1], in assay [2] and in assay [3] were 0.5 nM, 0.2 nM and 0.5 nM, respectively.

In the case of `CC(c1cccnc1N)N1c2nc(OC[C@@]34CCCN3C[C@H](F)C4)nc3c(F)c(-c4cc(=O)[nH]c5ccccc45)nc(c23)OC[C@@H]1C` (stereo partly drawn) [Compound 360], the IC50 in assay [1], in assay [2] and in assay [3] was above 100 nM in each case.

As for `CC(c1cccnc1N)N1c2nc(OC[C@@]34CCCN3C[C@H](F)C4)nc3c(F)c(-c4c5cn[nH]c5cc5cccc(F)c45)nc(c23)OC[C@@H]1C` (stereo partly drawn) [Compound 362], the values for the IC50 in assay [1], in assay [2] and in assay [3] were 0.3 nM, 0.2 nM and 0.4 nM, respectively.

`Cc1c(C(F)(F)F)c(-c2nc3c4c(nc(OC[C@@]56CCCN5C[C@H](F)C6)nc4c2F)N(C(C)c2cccnc2N)[C@@H](C)CO3)c2cn[nH]c2c1F` (stereo partly drawn) [Compound 363]: the 50% inhibitory concentration (IC50) in assay [1] is 0.3 nM; in assay [2], 0.2 nM; in assay [3], 0.3 nM.

For the molecule `Cc1cc2[nH]ncc2c(-c2nc3c4c(nc(OC[C@@]56CCCN5C[C@H](F)C6)nc4c2F)N([C@@H](C)c2cc(F)cnc2N)[C@@H](C)CO3)c1C(F)(F)F` [Compound 364], the IC50 in assay [1], in assay [2] and in assay [3] was above 100 nM each time.

As to `Cc1c(F)c(N)cc(-c2nc3c4c(nc(OC[C@@]56CCCN5C[C@H](F)C6)nc4c2F)N([C@H](C)c2cc(F)cnc2N)[C@@H](C)CO3)c1C(F)(F)F` [Compound 365], the IC50 in assay [1] worked out at 1 nM; in assay [2], 0.2 nM; in assay [3] it was 1 nM.

As for `Cc1c(F)c(N)cc(-c2nc3c4c(nc(OC[C@@]56CCCN5C[C@H](F)C6)nc4c2F)N([C@@H](C)c2cc(F)cnc2N)[C@@H](C)CO3)c1C(F)(F)F` [Compound 366], the IC50 in assay [1], in assay [2] and in assay [3] was above 100 nM in each case.

Turning to `CC(c1cc(F)cnc1N)N1c2nc(OC[C@@]34CCCN3C[C@H](F)C4)nc3c(F)c(-c4c5cn[nH]c5cc5cccc(F)c45)nc(c23)OC[C@@H]1C` (stereo partly drawn) [Compound 367], the concentration for half-maximal inhibition (IC50) worked out at 0.4 nM in assay [1], 0.2 nM in assay [2] and 1 nM in assay [3].

In the case of `Cc1c(C(F)(F)F)c(-c2nc3c4c(nc(OC[C@@]56CCCN5C[C@H](F)C6)nc4c2F)N(C(C)c2cc(F)cnc2N)[C@@H](C)CO3)c2cn[nH]c2c1F` (stereo partly drawn) [Compound 368], the IC50 stood at 0.3 nM in assay [1], 0.3 nM in assay [2] and 0.6 nM in assay [3].

As to `CC(c1cccnc1N)N1c2nc(OC[C@@]34CCCN3C[C@H](F)C4)nc3c(F)c(-c4c5cn[nH]c5cc5ccc(F)c(F)c45)nc(c23)OC[C@@H]1C` (stereo partly drawn) [Compound 369], the IC50 is 0.2 nM in assay [1], 0.2 nM in assay [2] and 0.4 nM in assay [3].

On to `CC(c1cccnc1N)N1c2nc(OC[C@@]34CCCN3C[C@H](F)C4)nc3c(F)c(-c4c5c(cc6[nH]ncc46)CCC5(F)F)nc(c23)OC[C@@H]1C` (stereo partly drawn) [Compound 370], for which the IC50 in assay [1] stood at 3 nM; in assay [2] it was 1 nM; in assay [3], 2 nM.

Regarding `CC(c1cccnc1N)N1c2nc(OC[C@@]34CCCN3C[C@H](F)C4)nc3c(F)c(-c4cc(F)cc5c4C(F)(F)CC5)nc(c23)OC[C@@H]1C` (stereo partly drawn) [Compound 371], the IC50 in assay [1] was 11 nM; in assay [2], 3 nM; in assay [3], 57 nM.

On to `Cc1cc2[nH]ncc2c(-c2nc3c4c(nc(OC[C@@]56CCCN5C[C@H](F)C6)nc4c2F)N(C(C)c2cccnc2N)CCO3)c1C(F)(F)F` (stereo partly drawn) [Compound 372], for which the IC50 in assay [1] came to 0.8 nM; in assay [2], 0.3 nM; in assay [3] it was 4 nM.

In the case of `CC(c1cccnc1N)N1c2nc(OC[C@@]34CCCN3C[C@H](F)C4)nc3c(F)c(-c4c5c(cc6[nH]ncc46)CC=C5F)nc(c23)OC[C@@H]1C` (stereo partly drawn) [Compound 374], the IC50 in assay [1] came to 2 nM; in assay [2], 0.6 nM; in assay [3] it was 1 nM.

As for `CC(c1cccnc1N)N1c2nc(OC[C@@]34CCCN3C[C@H](F)C4)nc3c(F)c(-c4c5cccnc5cc5[nH]ncc45)nc(c23)OC[C@@H]1C` (stereo partly drawn) [Compound 375], the IC50 in assay [1] is 94 nM; in assay [2] it was 8 nM; in assay [3], above 100 nM.

With `CC(c1cccnc1N)N1c2nc(OC[C@@]34CCCN3C[C@H](F)C4)nc3c(F)c(-c4c5c(cc6[nH]ncc46)CCC(F)(F)C5)nc(c23)OC[C@@H]1C` (stereo partly drawn) [Compound 376], the results for the IC50 in assay [1], in assay [2] and in assay [3] were 1 nM, 0.4 nM and 4 nM, respectively.

In the case of `Cc1cc2[nH]nc(C)c2c(-c2nc3c4c(nc(OC[C@@]56CCCN5C[C@H](F)C6)nc4c2F)N(C(C)c2cccnc2N)[C@@H](C)CO3)c1C(F)(F)F` (stereo partly drawn) [Compound 377], the results for the IC50 in assay [1], in assay [2] and in assay [3] were 5 nM, 2 nM and 2 nM, respectively.

Consider `Cc1cc2[nH]nc(C)c2c(-c2nc3c4c(nc(OC[C@@]56CCCN5C[C@H](F)C6)nc4c2F)N(C(C)c2cccnc2N)[C@@H](C)CO3)c1C(F)(F)F` (stereo partly drawn) [Compound 378], for which the IC50 in assay [1] was determined as 0.6 nM; in assay [2], 0.2 nM; in assay [3], 0.2 nM.

As to `Cc1c(C(F)(F)F)c(-c2nc3c4c(nc(OC[C@@]56CCCN5C[C@H](F)C6)nc4c2F)N(C(C)c2cccnc2N)[C@@H](C)CO3)c2c(C)n[nH]c2c1F` (stereo partly drawn) [Compound 379], the IC50 in assay [1] was 0.3 nM; in assay [2], 0.2 nM; in assay [3], 0.1 nM.

`Cc1c(C(F)(F)F)c(-c2nc3c4c(nc(OC[C@@]56CCCN5C[C@H](F)C6)nc4c2F)N(C(C)c2cccnc2N)[C@@H](C)CO3)c2c(C)n[nH]c2c1F` (stereo partly drawn) [Compound 380]: the results for the IC50 in assay [1], in assay [2] and in assay [3] were 2 nM, 1 nM and 1 nM, respectively.

As to `Cc1c(C(F)(F)F)c(-c2nc3c4c(nc(OC[C@@]56CCCN5C[C@H](F)C6)nc4c2F)N(C(C)c2cccnc2N)[C@@H](C)CO3)c2c(Cl)n[nH]c2c1F` (stereo partly drawn) [Compound 381], the IC50 in assay [1] came out at 0.4 nM; in assay [2] it was 0.2 nM; in assay [3], 0.2 nM.

Consider `Cc1c(C(F)(F)F)c(-c2cc3nc(OC[C@@]45CCCN4C[C@H](F)C5)nc4c3c(n2)OC[C@H](C)N4C(C)c2cccnc2N)c2c(C)n[nH]c2c1F` (stereo partly drawn) [Compound 383], for which the IC50 in assay [1] was 0.4 nM; in assay [2] it was 0.5 nM; in assay [3], 0.4 nM.

Regarding `Cc1cc2[nH]nc(C)c2c(-c2cc3nc(OC[C@@]45CCCN4C[C@H](F)C5)nc4c3c(n2)OC[C@H](C)N4C(C)c2cccnc2N)c1C(F)(F)F` (stereo partly drawn) [Compound 385], the IC50 turned out to be 2 nM in assay [1], 0.7 nM in assay [2] and 0.4 nM in assay [3].

Regarding `CC(c1cccnc1N)N1c2nc(OC[C@@]34CCCN3C[C@H](F)C4)nc3cc(-c4c5ccccc5cc5[nH]ncc45)nc(c23)OC[C@@H]1C` (stereo partly drawn) [Compound 386], the results for the half-maximal inhibitory concentration (IC50) in assay [1], in assay [2] and in assay [3] were 0.7 nM, 0.4 nM and 6 nM, respectively.

In the case of `CC[C@H]1COc2nc(-c3c(C(F)(F)F)c(C)cc4[nH]ncc34)c(F)c3nc(OC[C@@]45CCCN4C[C@H](F)C5)nc(c23)N1C(C)c1cccnc1N` (stereo partly drawn) [Compound 387], the half-inhibitory concentration (IC50) worked out at 5 nM in assay [1], 2 nM in assay [2] and 17 nM in assay [3].

What is called IC50 is the midpoint of a concentration-inhibition curve.
